Test results taken from patent US4435566A, “Thiopyranopyrimidine compounds and acid addition salts thereof” (Maruko Seiyaku Co., Ltd., priority 1982, dated 1984).
Entries after “also recorded” stand apart in the source; their conditions may differ. Like-named read-outs stand apart in the source and are kept apart here.

Columns and labels:
[1] = Acute toxicity (Behrens-Karber method); conditions: mouse, in vivo, mortality one week after administration
Method: The test compound was administered orally (p.o.) or intravenously (i.v.) from a tail vein to ddY male mice weighing 24±2 g. The LD50 values were calculated by the Behrens-Karber method [Arch. exp. Path. Pharmak., 177, 379 (1935)] from the mortality one week after administration.

platelet aggregation = experiment: Inhibition of platelet aggregation in platelet-rich plasma (aggregometer); type: cell-based, rabbits (male); conditions: for IC50: Oryctolagus cuniculus, Platelet; for Percent Inhibition, Collagen: Collagen (5 × 10^-4 g/ml)
Method: A blood sample drawn from a jugular vein of unanesthetized male rabbits (body weight: 2.2 to 2.6 kg) was mixed with a 3.8% aqueous sodium citrate solution in a proportion of 9:1 (by volume) and the mixture was centrifuged at 1,000 rpm for 10 minutes to obtain a platelet-rich plasma (about 5×10^5 platelets/mm^3, hereinafter "PRP"). To […] of PRP was added […] of an aqueous solution of the test compound and, after 2 hours, to the mixture was added either an adenosine diphosphate (ADP) solution (final concentration: 5×10^-6 M), a sodium arachidonate solution (final concentration: 5×10^-4 M) or collagen. The percent platelet aggregation was determined using an aggregometer and the inhibition of platelet aggregation by the test compound was calculated.

Normal Mice = experiment: Hypoglycemic activity (d): effect on normal mice, ED20; type: in vivo, mice (ddY male); conditions: Mus musculus; oral; 3 hours after administration
Method: (§1) Alloxan was administered intravenously at a dose of 50 mg/kg from a tail vein to 5W ddY male mice weighing 23 to 27 g (10 […] per group). Seven days after administration, the test compound was administered orally to the mice and a blood sample was collected from the sacrificed mice after 3 hours. The blood sugar level of the sample was determined by the o-toluidine-boric acid method. The percent inhibition was calculated from the values in test group and the control, and a 20% inhibitory effective dose (ED20) was determined from a dose response curve.
The test compound was administered orally to 6W ddY male mice and, 3 hours after administration, a blood sample was drawn from the sacrificed mice. The blood sugar level of the sample was determined and ED20 values were calculated in the same manner as described in (c) above.

Alloxan Diabetes Mice [2] = experiment: Hypoglycemic activity (c): effect on alloxan diabetes mice, ED20; type: in vivo, mice (ddY male); conditions: Mus musculus; oral; 3 hours after administration; alloxan 50 mg/kg i.v.
Method: as §1

Alloxan Diabetes Rats [3] = experiment: Hypoglycemic activity (b)(1): effect on alloxan diabetes rats, blood sugar 2 hours after oral administration; type: in vivo, rats (Wister male); conditions: for % Change in Blood Sugar Level / Blood Sugar Level Mean ± S.E.: 2 hours after administration; for Blood Sugar Level Mean ± S.E.: alloxan 30 mg/kg i.v.
Method: (1) Alloxan was administered intravenously at a dose of 30 mg/kg from a tail vein to Wister male rats weighing 200 to 218 g. Three days after administration, the test compound was administered orally to the rats and the blood sugar level was determined before and 2 hours after administration of the test compound.

Alloxan Diabetes Mice [4] = experiment: Hypoglycemic activity (a): effect on alloxan diabetes mice, blood sugar 2 hours after oral administration; type: in vivo, mice (ddY male); conditions: for % Change in Blood Sugar Level / Blood Sugar Level Mean ± S.E.: 2 hours after administration; for Blood Sugar Level Mean ± S.E.: alloxan 40 mg/kg i.v.
Method: Alloxan was administered intravenously at a dose of 40 mg/kg from a tail vein to ddY male mice weighing 28.2 to 29.5 g. Seven days after administration, the test compound was administered orally to the mice and the blood sugar level was determined before and 2 hours after the administration of the test compound.

Alloxan Diabetes Rats [5] = experiment: Hypoglycemic activity (b)(2): effect on alloxan diabetes rats, time course of blood sugar (o-toluidine-boric acid method); type: in vivo, rats (Wister male); set-up: unit not given here; conditions: 100 mg/kg, oral
Method: (2) Alloxan was administered intravenously at a dose of 18 mg/kg to 9-10W Wister male rats weighing 240 to 280 g. Three days after administration, the test compound was administered orally to the rats (after fasting for 4 hours) and the blood sugar level was determined before and 1, 2 and 3 hours after administration of the test compound with respect to the blood samples drawn from the jugular vein by the o-toluidine-boric acid method.

[6] = target: T1, ileum of Hartley male guinea pig (histamine) (Cavia porcellus, UniProt P31389); experiment: Anti-histamine activity on isolated ileum (Magnus tube, cumulative technique); conditions: for Kb: Tyrode solution, 25±0.5° C., histamine added after 5 minutes, read-out: pA2 Value (converted)
T1 construct: The ileum of Hartley male guinea pig (body weight: 350-400 g) was extracted and suspended in a Magnus tube; from tissue; host or cells: isolated ileum of Hartley male guinea pig
Method: The ileum of Hartley male guinea pig (body weight: 350-400 g) was extracted and suspended in a Magnus tube containing 40 ml of Tyrode solution and the muscle movement was recorded on a soot paper via an isotonic Hebel. The solution in the Magnus tube was maintained at 25±0.5° C. during the test and test compound was previously added to the solution.

[7] = rabbit PRP, ADP final concentration 5×10^-6 M, read-out: IC50, ADP
[8] = rabbit PRP, sodium arachidonate final concentration 5×10^-4 M, read-out: OC50, Arachidonic Acid

T1 sequence (P31389 whole entry): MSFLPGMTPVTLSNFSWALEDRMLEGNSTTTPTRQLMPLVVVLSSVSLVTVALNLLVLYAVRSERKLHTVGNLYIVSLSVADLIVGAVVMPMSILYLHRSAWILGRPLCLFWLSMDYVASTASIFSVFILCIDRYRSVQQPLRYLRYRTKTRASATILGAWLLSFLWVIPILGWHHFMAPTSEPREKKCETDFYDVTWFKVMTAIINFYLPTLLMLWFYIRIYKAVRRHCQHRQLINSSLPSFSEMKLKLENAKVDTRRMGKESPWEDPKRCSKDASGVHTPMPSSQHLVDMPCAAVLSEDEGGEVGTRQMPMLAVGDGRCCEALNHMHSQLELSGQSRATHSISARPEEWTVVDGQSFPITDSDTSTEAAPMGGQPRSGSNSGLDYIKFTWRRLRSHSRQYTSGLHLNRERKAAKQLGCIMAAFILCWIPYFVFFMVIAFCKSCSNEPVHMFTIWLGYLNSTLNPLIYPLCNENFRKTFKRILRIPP

CN1CCN(c2nc3c(c(N4CCOCC4)n2)SCCC3)CC1 [Compound H, 2-(N-methylpiperazino)-4-morpholino-7,8-dihydro-6H-thiopyrano[3,2-d]pyrimidine]
LD50 at 168 h ([1]; iv, read-out: LD50, i.v.): 200 mg/kg
LD50 at 168 h ([1]; po, read-out: LD50, p.o.): 1580 mg/kg
IC50 (platelet aggregation; [7]): 1000 µM
IC50 (platelet aggregation; [8]): 8.4 µM
Percent Inhibition, Collagen (platelet aggregation; rabbit PRP): 65%

CN1CCN(c2nc(N)c3c(n2)CCCS3)CC1 [Compound A, 4-amino-2-(N-methylpiperazino)-7,8-dihydro-6H-thiopyrano[3,2-d]pyrimidine]
ED20 (Normal Mice): 127 mg/kg
LD50 at 168 h ([1]; po, read-out: LD50, p.o.): 1450 mg/kg
ED20 (Alloxan Diabetes Mice [2]): 60 mg/kg

CCCCNC(=N)NC(=N)N [Buformin, 1-Butyl-biguanide, reference compound]
hypoglycemic activity (in words) (Alloxan Diabetes Rats [3]; 100 mg/kg): significant hypoglycemic activity
% Change in Blood Sugar Level (Alloxan Diabetes Rats [3]; 100 mg/kg): -22.9%
Blood Sugar Level Mean ± S.E. (Alloxan Diabetes Rats [3]; 100 mg/kg): 275.5 ± 6.0 mg/dL
hypoglycemic activity (in words) (Alloxan Diabetes Mice [4]; 150 mg/kg): weak hypoglycemic activity
% Change in Blood Sugar Level (Alloxan Diabetes Mice [4]; 150 mg/kg): -15.3%
Blood Sugar Level Mean ± S.E. (Alloxan Diabetes Mice [4]; 150 mg/kg): 273.3 ± 28.7 mg/dL

C1CSc2c(nc(N3CCNCC3)nc2N2CCOCC2)C1.O=C(O)/C=C\C(=O)O [Compound G, 4-morpholino-2-piperazino-7,8-dihydro-6H-thiopyrano[3,2-d]pyrimidine maleate]
% Change in Blood Sugar Level (Alloxan Diabetes Rats [3]; 100 mg/kg): -30.2%
Blood Sugar Level Mean ± S.E. (Alloxan Diabetes Rats [3]; 100 mg/kg): 286.3 ± 76 mg/dL
hypoglycemic activity (in words) (Alloxan Diabetes Rats [3]; 100 mg/kg, maleate): significant hypoglycemic activity; also recorded: strongest activity
hypoglycemic activity (in words) (Alloxan Diabetes Mice [4]; 200 mg/kg): significant hypoglycemic activity
% Change in Blood Sugar Level (Alloxan Diabetes Mice [4]; 200 mg/kg): -39.5%
Blood Sugar Level Mean ± S.E. (Alloxan Diabetes Mice [4]; 200 mg/kg): 195.2 ± 39.7 mg/dL
Blood Sugar Level Mean ± S.E., After 1 Hr. (Alloxan Diabetes Rats [5]; 1 hour after administration, fasted 4 hours): 141.3 ± 10.4
Blood Sugar Level Mean ± S.E., After 2 Hrs. (Alloxan Diabetes Rats [5]; 2 hours after administration, fasted 4 hours): 130.6 ± 12.6
Blood Sugar Level Mean ± S.E., After 3 Hrs. (Alloxan Diabetes Rats [5]; 3 hours after administration, fasted 4 hours): 130.3 ± 10.3
Blood Sugar Level Mean ± S.E., Before (Alloxan Diabetes Rats [5]; before administration (baseline)): 189.5 ± 9.4
LD50 at 168 h ([1]; iv, read-out: LD50, i.v.): 135 mg/kg
LD50 at 168 h ([1]; po, read-out: LD50, p.o.): 960 mg/kg
IC50 (platelet aggregation; [7]): 150 µM
IC50 (platelet aggregation; [8]): 750 µM
Percent Inhibition, Collagen (platelet aggregation; rabbit PRP): 95%

CC(=O)Oc1ccccc1C(=O)O [Acetylsalicylic Acid (Aspirin), Acetylsalicylic Acid, reference compound]
IC50 (platelet aggregation; read-out: IC50, ADP): 2000 µM
IC50 (platelet aggregation; read-out: OC50, Arachidonic Acid): 180 µM

CN1CCN(c2nc3c(c(N4CCCC4)n2)SCCC3)CC1.O=C(O)/C=C\C(=O)O [Compound F, 2-(N-methylpiperazino)-4-pyrrolidino-7,8-dihydro-6H-thiopyrano[3,2-d]pyrimidine maleate]
LD50 at 168 h ([1]; iv, read-out: LD50, i.v.): 100 mg/kg
LD50 at 168 h ([1]; po, read-out: LD50, p.o.): 1250 mg/kg
anti-histamine activity compared with Diphenhydramine (in words) [6]: substantially equal to that of Diphenhydramine
Kb [6]: 0.0204 µM
IC50 (platelet aggregation; [8]): 30 µM
Percent Inhibition, Collagen (platelet aggregation; rabbit PRP): 73%

Nc1nc(N2CCNCC2)nc2c1SCCC2 [Compound D, 4-Amino-2-piperazino-7,8-dihydro-6H--thiopyrano[3,2-d]pyrimidine Dimaleate]
ED20 (Normal Mice): 11 mg/kg
LD50 at 168 h ([1]; po, read-out: LD50, p.o.): 820 mg/kg
ED20 (Alloxan Diabetes Mice [2]): 52 mg/kg

CCCCNC(=O)NS(=O)(=O)c1ccc(C)cc1 [Tolbutamide, 1-Butyl-3-(p-tolylsulfonyl)-urea, reference compound]
hypoglycemic activity (in words) (Alloxan Diabetes Rats [3]; 300 mg/kg): significant hypoglycemic activity
% Change in Blood Sugar Level (Alloxan Diabetes Rats [3]; 300 mg/kg): -18.6%
Blood Sugar Level Mean ± S.E. (Alloxan Diabetes Rats [3]; 300 mg/kg): 285.2 ± 2.8 mg/dL
hypoglycemic activity (in words) (Alloxan Diabetes Mice [4]; 500 mg/kg): weak hypoglycemic activity
% Change in Blood Sugar Level (Alloxan Diabetes Mice [4]; 500 mg/kg): -13.7%
Blood Sugar Level Mean ± S.E. (Alloxan Diabetes Mice [4]; 500 mg/kg): 278.4 ± 25.7 mg/dL

C1CSc2c(nc(N3CCNCC3)nc2N2CCCC2)C1.O=C(O)/C=C\C(=O)O [Compound E, 2-piperazino-4-pyrrolidino-7,8-dihydro-6H-thiopyrano[3,2-d]pyrimidine maleate]
hypoglycemic activity (in words) (Alloxan Diabetes Mice [4]; 200 mg/kg): significant hypoglycemic activity
% Change in Blood Sugar Level (Alloxan Diabetes Mice [4]; 200 mg/kg): -36.3%
Blood Sugar Level Mean ± S.E. (Alloxan Diabetes Mice [4]; 200 mg/kg): 205.5 ± 29.3 mg/dL
LD50 at 168 h ([1]; iv, read-out: LD50, i.v.): 125 mg/kg
LD50 at 168 h ([1]; po, read-out: LD50, p.o.): 1170 mg/kg
anti-histamine activity compared with Diphenhydramine (in words) [6]: substantially equal to that of Diphenhydramine
Kb [6]: 0.0427 µM

Nc1nc2c(c(N3CCNCC3)n1)SCCC2.O=C(O)/C=C\C(=O)O.O=C(O)/C=C\C(=O)O [Compound C, 2-amino-4-piperazino-7,8-dihydro-6H-thiopyrano[3,2-d]pyrimidine dimaleate]
ED20 (Normal Mice): 230 mg/kg
LD50 at 168 h ([1]; po, read-out: LD50, p.o.): 1400 mg/kg
ED20 (Alloxan Diabetes Mice [2]): 47 mg/kg

CNc1nc(N2CCNCC2)nc2c1SCCC2 [Compound B, 4-methylamino-2-piperazino-7,8-dihydro-6H-thiopyrano[3,2-d]pyrimidine]
ED20 (Normal Mice): 37 mg/kg
LD50 at 168 h ([1]; po, read-out: LD50, p.o.): 580 mg/kg
ED20 (Alloxan Diabetes Mice [2]): 53 mg/kg
